# Assay results as given in patent US6379670B1, “Methods for treatment of multiple sclerosis using peptide analogs of human myelin basic protein” (Neurocrine Biosciences, Inc., priority 1994, dated 2002).
# Non-standard residues stand in square brackets, D forms with d. No end group written: not given here.
# Tests used:
# [1] = tested on: T cell cultures from multiple sclerosis patients; test: Th2/Th1 (IL-13/IFN-γ) activity of T cell cultures of MS patients by dose group; type: in vivo, human; conditions: 1, 5 and 20 mg dose groups, weeks 3, 5 and 8; most prominently in the 5 and 20 mg dose groups, FIG. 34
# Method: T cell analyses (cytokine production) were performed at Week 1 (pre-dosing), at Week 3 (=just prior to third dose), at Week 5 (1 week after last dose) and Week 8 (4 weeks after last dose). Tritiated thymidine uptake was measured using a beta scintillation counter (Topcount, Packard).
# Interferon-γ(marker for Th1 activity) and IL-13 (marker for Th2 activity) were measured by Enzyme-Linked Immuno-Assay (ELISA) in T cell culture supernatants collected prior to [^3H]-thymidine incorporation (proliferation assay).
# To measure IFN-γ produced by T cell cultures, a sandwich ELISA method was employed. Microtiter plates were coated with 2 μg/ml capture antibody (Pharmingen, San Diego) in 0.1 M NaHCO3 (pH=8.2) overnight at 4° C. Plates were then incubated with blocking buffer (1% solution [w/v] of casein [Sigma] in water, pH=8.2) for at least 30 minutes at room temperature to block non-specific binding sites. […] The reaction was stopped by the addition of 0.2N H2SO4 and absorbance at 450 nm was determined using a microplate spectrophotometer (Molecular Dynamics, Sunnyvale, Calif., USA). […]
# To measure IL-13 produced by T cell cultures, a sandwich ELISA method was employed. […] The reaction was stopped by the addition of 0.2N H2SO4 and absorbance at 450 nm was determined using a microplate spectrophotometer (Molecular Dynamics, Sunnyvale, Calif., USA). […]
# [2] = tested on: Dr2b-restricted T cell clone 5F6; test: Cytokine production (TNF-α, IFN-γ) by T cell clone 5F6, EIA; type: cell-based, human
# Method: As discussed in detail below, the production of cytokines may also be assessed. In particular, TNF-α and IFN-γ production are especially interesting. These pro-inflammatory cytokines are thought to play a role in the pathogenesis of the disease. Briefly, T cell clone is incubated in the presence of stimulating MBP peptide and peptide analog or control peptide (SWM) or medium only. After a 24 hour incubation, the levels of TNF-α and IFN-γ in the supernatant are determined using commercially available EIA kits (Endogen, Cambridge, Mass.).
# The ability of the peptide analog ligand to influence cytokine production was next measured. The Dr2b-restricted T cell clone 5F6 was incubated in the presence of 3 μM MBP peptide with either 10 μM of NBI-5788 (SEQ ID NO:7) or SWM or medium only. As a control, cells were cultured in the presence of medium alone. After 24 hours, supernatants were removed and the levels of tumor necrosis factor alpha (TNF-α) and interferon-y (IFN-γ) determined using commercially available EIA kits.
substance,measurement,setting,value
"MBP(83-99) (83E>a, 84N>K, 89F>L, and 91K>A) ([dA]KPVVHLFANIVTPRTP) [NBI-5788]",ratio of overall Th2-type to overall Th1-type activities (IL-13/IFN-γ),[1],clear shift to an overall Th2 activity
same,effect on MBP-stimulated production of TNF-α and IFN-γ,"[2]; 10 μM peptide with 3 μM MBP peptide, to approximately levels with medium only",dramatically inhibited the production of both pro-inflammatory cytokines
same,stimulation of cytokine production over background by the analog itself,[2]; even at concentrations of 50 μM (data not shown),None
